Data from PubChem BioAssay (NCI).
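Exposure lasted 48 hours, with cells grown in 96-well plates and compounds tested at five concentrations. GI50: concentration for 50% inhibition of growth. TGI: concentration producing complete growth inhibition.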

Tests used:
Test in all cases: NCI tumour cell line growth inhibition, 48 h
HOP-62 NSCLC = tested on: HOP-62 NSCLC
SK-MEL-2 melanoma = tested on: SK-MEL-2 melanoma
OVCAR-8 ovarian = tested on: OVCAR-8 ovarian
OVCAR-5 ovarian = tested on: OVCAR-5 ovarian
HCC-2998 colon = tested on: HCC-2998 colon
UACC-62 melanoma = tested on: UACC-62 melanoma
SNB-75 CNS = tested on: SNB-75 CNS
SF-268 CNS = tested on: SF-268 CNS
NCI-H23 lung = tested on: NCI-H23 lung
SW-620 colon = tested on: SW-620 colon
MDA-MB-468 breast = tested on: MDA-MB-468 breast
NCI-H460 lung = tested on: NCI-H460 lung
HCT-15 colon = tested on: HCT-15 colon
IGROV1 ovarian = tested on: IGROV1 ovarian
UO-31 renal = tested on: UO-31 renal
MDA-MB-231 breast = tested on: MDA-MB-231 breast
NCI-H522 lung = tested on: NCI-H522 lung
LOX IMVI melanoma = tested on: LOX IMVI melanoma
TK-10 renal = tested on: TK-10 renal
ACHN renal = tested on: ACHN renal
SR leukemia = tested on: SR leukemia
786-0 renal = tested on: 786-0 renal
M14 melanoma = tested on: M14 melanoma
BT-549 breast = tested on: BT-549 breast
SF-295 CNS = tested on: SF-295 CNS
NCI/ADR-RES ovarian = tested on: NCI/ADR-RES ovarian
K-562 leukemia = tested on: K-562 leukemia
OVCAR-3 ovarian = tested on: OVCAR-3 ovarian
EKVX NSCLC = tested on: EKVX NSCLC
DU-145 prostate = tested on: DU-145 prostate
HS 578T breast = tested on: HS 578T breast
RPMI-8226 leukemia = tested on: RPMI-8226 leukemia
SK-OV-3 ovarian = tested on: SK-OV-3 ovarian
UACC-257 melanoma = tested on: UACC-257 melanoma
COLO 205 colon = tested on: COLO 205 colon
SNB-19 CNS = tested on: SNB-19 CNS
A498 renal = tested on: A498 renal
PC-3 prostate = tested on: PC-3 prostate
SK-MEL-28 melanoma = tested on: SK-MEL-28 melanoma
OVCAR-4 ovarian = tested on: OVCAR-4 ovarian
SN12C renal = tested on: SN12C renal
HT29 colon = tested on: HT29 colon
SF-539 CNS = tested on: SF-539 CNS
A549 NSCLC = tested on: A549 NSCLC
MDA-MB-435 = tested on: MDA-MB-435
T-47D breast = tested on: T-47D breast
KM12 colon = tested on: KM12 colon
CAKI-1 renal = tested on: CAKI-1 renal
MCF7 breast = tested on: MCF7 breast
U251 CNS = tested on: U251 CNS
CCRF-CEM leukemia = tested on: CCRF-CEM leukemia
SK-MEL-5 melanoma = tested on: SK-MEL-5 melanoma
HCT-116 colon = tested on: HCT-116 colon
HL-60(TB) leukemia = tested on: HL-60(TB) leukemia
NCI-H226 lung = tested on: NCI-H226 lung
MALME-3M melanoma = tested on: MALME-3M melanoma
RXF 393 renal = tested on: RXF 393 renal
MOLT-4 leukemia = tested on: MOLT-4 leukemia
HOP-92 NSCLC = tested on: HOP-92 NSCLC

CCOC(=O)c1ccc(NC(=S)NC(=O)c2ccc(NC(=O)C(C)C)cc2OC)cc1
GI50 (HOP-62 NSCLC): 22.1 µM
TGI (HOP-62 NSCLC): 72.3 µM
GI50 (SK-MEL-2 melanoma): 14.9 µM
TGI (SK-MEL-2 melanoma): 62.9 µM
GI50 (OVCAR-8 ovarian): 16.4 µM
TGI (OVCAR-8 ovarian): > 100 µM
GI50 (OVCAR-5 ovarian): 29.7 µM
TGI (OVCAR-5 ovarian): > 100 µM
GI50 (HCC-2998 colon): 20.3 µM
TGI (HCC-2998 colon): > 100 µM
GI50 (UACC-62 melanoma): 11.7 µM
TGI (UACC-62 melanoma): 53.7 µM
GI50 (SNB-75 CNS): 3.54 µM
TGI (SNB-75 CNS): 62.7 µM
GI50 (SF-268 CNS): 20.7 µM
TGI (SF-268 CNS): > 100 µM
GI50 (NCI-H23 lung): 3.71 µM
TGI (NCI-H23 lung): 29.7 µM
GI50 (SW-620 colon): 8.22 µM
TGI (SW-620 colon): > 100 µM
GI50 (MDA-MB-468 breast): 2.04 µM
TGI (MDA-MB-468 breast): 8.09 µM
GI50 (NCI-H460 lung): 7.17 µM
TGI (NCI-H460 lung): > 100 µM
GI50 (HCT-15 colon): 4.24 µM
TGI (HCT-15 colon): > 100 µM
GI50 (IGROV1 ovarian): 19.3 µM
TGI (IGROV1 ovarian): > 100 µM
GI50 (UO-31 renal): 11.3 µM
TGI (UO-31 renal): 79.3 µM
GI50 (MDA-MB-231 breast): 16.2 µM
TGI (MDA-MB-231 breast): 53.2 µM
GI50 (NCI-H522 lung): 3.79 µM
TGI (NCI-H522 lung): > 100 µM
GI50 (LOX IMVI melanoma): 11.6 µM
TGI (LOX IMVI melanoma): > 100 µM
GI50 (TK-10 renal): 22.3 µM
TGI (TK-10 renal): 76.6 µM
GI50 (ACHN renal): 26 µM
TGI (ACHN renal): > 100 µM
GI50 (SR leukemia): 6.04 µM
TGI (SR leukemia): > 100 µM
GI50 (786-0 renal): 21.9 µM
TGI (786-0 renal): 60.4 µM
GI50 (M14 melanoma): 5.83 µM
TGI (M14 melanoma): 63.1 µM
GI50 (BT-549 breast): 1.97 µM
TGI (BT-549 breast): 6.52 µM
GI50 (SF-295 CNS): 8.33 µM
TGI (SF-295 CNS): 45.4 µM
GI50 (NCI/ADR-RES ovarian): 12.6 µM
TGI (NCI/ADR-RES ovarian): 48.3 µM
GI50 (K-562 leukemia): 3.28 µM
TGI (K-562 leukemia): > 100 µM
GI50 (OVCAR-3 ovarian): 15.3 µM
TGI (OVCAR-3 ovarian): > 100 µM
GI50 (EKVX NSCLC): 15.7 µM
TGI (EKVX NSCLC): 99.8 µM
GI50 (DU-145 prostate): 34.7 µM
TGI (DU-145 prostate): > 100 µM
GI50 (HS 578T breast): 31.7 µM
TGI (HS 578T breast): > 100 µM
GI50 (RPMI-8226 leukemia): 2.66 µM
TGI (RPMI-8226 leukemia): 17.5 µM
GI50 (SK-OV-3 ovarian): 35.6 µM
TGI (SK-OV-3 ovarian): > 100 µM
GI50 (UACC-257 melanoma): 12.5 µM
TGI (UACC-257 melanoma): > 100 µM
GI50 (COLO 205 colon): 15.5 µM
TGI (COLO 205 colon): 42.3 µM
GI50 (SNB-19 CNS): 14.8 µM
TGI (SNB-19 CNS): 66.9 µM
GI50 (A498 renal): 28.1 µM
TGI (A498 renal): > 100 µM
GI50 (PC-3 prostate): 6.41 µM
TGI (PC-3 prostate): 69.9 µM
GI50 (SK-MEL-28 melanoma): 14 µM
TGI (SK-MEL-28 melanoma): > 100 µM
GI50 (OVCAR-4 ovarian): 9.21 µM
TGI (OVCAR-4 ovarian): 71.6 µM
GI50 (SN12C renal): 28.5 µM
TGI (SN12C renal): > 100 µM
GI50 (HT29 colon): 39.3 µM
TGI (HT29 colon): > 100 µM
GI50 (SF-539 CNS): 27.7 µM
TGI (SF-539 CNS): > 100 µM
GI50 (A549 NSCLC): 33.4 µM
TGI (A549 NSCLC): > 100 µM
GI50 (MDA-MB-435): 15.2 µM
TGI (MDA-MB-435): > 100 µM
GI50 (T-47D breast): 2.35 µM
TGI (T-47D breast): 11.2 µM
GI50 (KM12 colon): 6.37 µM
TGI (KM12 colon): > 100 µM
GI50 (CAKI-1 renal): 17.8 µM
TGI (CAKI-1 renal): 80.8 µM
GI50 (MCF7 breast): 3.26 µM
TGI (MCF7 breast): 37.2 µM
GI50 (U251 CNS): 12.3 µM
TGI (U251 CNS): 46 µM
GI50 (CCRF-CEM leukemia): 2.93 µM
TGI (CCRF-CEM leukemia): 50 µM
GI50 (SK-MEL-5 melanoma): 2.14 µM
TGI (SK-MEL-5 melanoma): 5.79 µM
GI50 (HCT-116 colon): 3.99 µM
TGI (HCT-116 colon): 51.5 µM
GI50 (HL-60(TB) leukemia): 2.45 µM
TGI (HL-60(TB) leukemia): 25.2 µM
GI50 (NCI-H226 lung): 4.46 µM
TGI (NCI-H226 lung): 36.8 µM
GI50 (MALME-3M melanoma): 4.28 µM
TGI (MALME-3M melanoma): 32.6 µM
GI50 (RXF 393 renal): 15.7 µM
TGI (RXF 393 renal): 82.5 µM
GI50 (MOLT-4 leukemia): 2.22 µM
TGI (MOLT-4 leukemia): 5.97 µM
GI50 (HOP-92 NSCLC): 13.8 µM
TGI (HOP-92 NSCLC): 44.8 µM
